{"source": "patent US20160199361A1", "about": "“Method of Inducing An Anti-Retroviral Immune Response By Counter-Acting Retro-Virus Induced Anti-Apoptosis” (RUTGERS, THE STATE UNIVERSITY OF NEW JERSEY, priority 2013, published 2016)", "key": {"[1]": {"system": "PBMCs acutely infected with HIV-1", "test": "Apoptotic DNA fragmentation (TUNEL) in non-replenished short-term PBMC cultures infected with HIV-1 isolate", "format": "cell-based, human", "protocol": "(§1) Reagents and cells. Drug-grade deferiprone was kindly provided by Apotex (Toronto, Canada). PBMCs were isolated from the blood of healthy donors, per an IRB-approved protocol, and stimulated overnight with phytohemagglutinin (PHA) and human IL-2. […] Cultures were incubated at 37° C., 5% CO2, and 95% humidity. DNA fragmentation assay. Apoptotic DNA fragmentation was quantified flow-cytometrically, using a TUNEL (terminal deoxynucleotide transferase dUTP nick end-labeling) assay (APO-BRDU™; Phoenix Flow Systems; San Diego, Calif.)."}, "[2]": {"system": "clinical isolates of HIV-1", "test": "HIV-1 p24 and HIV-1 RNA in isolate-infected, long-term replenished primary cell (PBMC) cultures", "format": "cell-based", "settings": "for number of infective virions produced: use without interruption for up to three weeks, unchanged at least three months after discontinuation; for p24 relative to controls: within two weeks, PBMCs stably infected with clinical isolates", "protocol": "Reagents and cells. Drug-grade deferiprone was kindly provided by Apotex (Toronto, Canada). PBMCs were isolated from the blood of healthy donors, per an IRB-approved protocol, and stimulated overnight with phytohemagglutinin (PHA) and human IL-2. Stimulated cells were pelleted and resuspended for culture at a final concentration of 0.5×10^6 cells/ml in PHA-free RPMI 1640 medium containing 10% fetal calf serum (v/v), 100 units/ml penicillin G, 100 μg/ml streptomycin, 2 mM […], and 3.5 ng/ml human IL-2 (Medium B). Cultures were incubated at 37° C., 5% CO2, and 95% humidity.\nTo obtain clinical isolates of HIV-1, donors were consented to provide blood samples per an IRB-approved protocol. For infection, 5×10^6 uninfected stimulated PBMCs were co-cultured with 10×10^6 PBMCs from one of the HIV-infected donors in Medium B. On day 3, half of the supernatant was removed and replenished with an equal volume of fresh Medium B. On day 7, the medium was likewise replenished and 7.5×10^6 stimulated uninfected PBMCs were added. On days 10, 17, and 24, half of the supernatant was replenished. On days 14, 21, and 28, stimulated uninfected PBMCs were added. Cells were harvested when p24 reached 250 pg/ml, cryopreserved in freezing medium (90% fetal calf serum, 10% dimethyl sulfoxide), and stored in liquid nitrogen as infected PBMC stock. Cell-free supernatants were stored at −80° C.\n(§2) To establish persistent infection of cultured PBMCs, uninfected cells (5×10^6 cells) and infected PBMC stock (0.5×10^6 cells) were co-incubated in a 25 ml culture flask at a final concentration of 0.22×10^6 cells/ml. Cultures were allowed to establish productive infection, defined by medium p24 at or above 250 pg/ml, and deferiprone was added. Cultures were replenished with Medium B and freshly isolated uninfected PBMCs on alternate days. For replacement of Medium B, half of the supernatant was gently exchanged without disturbing the cells, and the drug concentration was adjusted appropriately. For replacement with freshly isolated, stimulated and uninfected PBMCs, half of the cells and supernatant were removed and replaced with 2.5×10^6 cells in the proper volume of Medium B, with adjustment of the drug concentration. Cell-free supernatants were saved for p24 and viral RNA measurements.\n(§3) Detection of p24, viral RNA, and viral DNA. p24 core antigen in the supernatant was quantified by ELISA (Retrotek HIV-1 p24™; ZeptoMetrix Corp.; Buffalo, N.Y.). HIV-1 RNA copy number in the supernatant of PBMC cultures and in plasma of patients enrolled in the exploratory deferiprone trial was determined with a PCR-based and FDA-approved assay (Amplicor HIV-1 Monitor™; Roche Diagnostics Corp.; Indianapolis, Ind.). For clinical samples, the assay was used per the Standard Specimen Processing Procedure (sensitivity limit 400 copies/ml); for cell culture samples, the assay was used in both the Standard Specimen Processing and the UltraSensitive Specimen Processing Procedure (sensitivity limit 50 copies/ml). The Roche Amplicor HIV-1 DNA Test (Roche Diagnostics Corp.; Indianapolis, Ind.) was used for qualitative detection of HIV-1 DNA."}, "uninfected PBMCs": {"system": "uninfected PBMCs", "test": "Apoptotic DNA fragmentation (TUNEL) in non-replenished short-term uninfected PBMC cultures", "format": "cell-based, human", "settings": "30 μM, 144 hours", "protocol": "as §1"}, "HIV-1 [3]": {"system": "HIV-1", "test": "Exploratory pilot trial: plasma HIV-1 RNA in HIV-1-infected treatment-naive persons", "format": "in vivo, human", "protocol": "as §3\nTwo oral dose levels of deferiprone were tested, 33 mg/kg (33 mg/kg QD on days 1 and 7, and 33 mg/kg TID on days 2-6 [seven asymptomatic HIV-infected antiretroviral-naive persons]) and 50 mg/kg (50 mg/kg QD on days 1 and 7, and 50 mg/kg TID on days 2-6 [six healthy volunteers and seven asymptomatic HIV-infected antiretroviral-naive persons, four of whom completed the treatment period]).\nEach cohort was unblinded only at study completion. […] Secondary parameters included pharmacokinetic variables (e.g. peak serum concentration) in serum, drawn after initial drug ingestion at fixed hours (0, 0.5, 1, 1.5, 2, 3, 4, 6, 9, 12). […] Viral load was measured as described above.\nFor the cell culture experiments with deferiprone and the exploratory clinical trial, descriptive statistics were generated using Microsoft Excel 2011. In the exploratory trial, outcome analysis was performed to assess the intercohort and intraindividual virological response to deferiprone, using Student's t-test for log10-based analysis of the time-specified differentials (Δ log) between the cohort identified medians (±standard error of the mean [SEM]) generated from the multiple measurements per subject on treatment minus before treatment. (‘response’ in the first stage of the protocol) and off treatment minus before treatment (‘rebound’ in the second stage of the treatment). P<0.05 was used as criterion for statistical significance. […] To assess the in vivo antiretroviral activity of deferiprone in a hypothesis-independent manner, the Δ log of the HIV-1 RNA levels achieved in the first and the second stage of the protocol was analyzed after post-treatment segregation into ‘responders’ and ‘non-responders’ per the discontinuation trial design (DTD)."}, "PBMCs": {"system": "PBMCs", "test": "Cell viability and apoptotic volume decrease by trypan blue image analysis in replenished PBMC cultures", "format": "cell-based, human", "settings": "200 μM", "protocol": "Quantitation of cell number, viability, diameter, and apoptotic volume decrease. These parameters were measured in PBMC cultures by computerized image analysis of trypan blue exclusion (VI-CELL™; Beckman Coulter; Fullerton, Calif.)."}, "HIV-1 DNA": {"system": "HIV-1 DNA", "test": "Qualitative detection of HIV-1 DNA in infected replenished PBMC cultures", "format": "cell-based", "settings": "200 μM, 10 days of post-cessation monitoring", "protocol": "as §2\nDetection of p24, viral RNA, and viral DNA. p24 core antigen in the supernatant was quantified by ELISA (Retrotek HIV-1 p24™; ZeptoMetrix Corp.; Buffalo, N.Y.). HIV-1 RNA copy number in the supernatant of PBMC cultures and in plasma of patients enrolled in the exploratory deferiprone trial was determined with a PCR-based and FDA-approved assay (Amplicor HIV-1 Monitor™; Roche Diagnostics Corp.; Indianapolis, Ind.). […]"}, "infected T-cell lines": {"system": "infected T-cell lines", "test": "Suppression of HIV-1 generation and selective induction of apoptosis in infected T-cell lines", "format": "cell-based"}, "HIV-1 [4]": {"system": "HIV-1", "settings": "zidovudine monotherapy, reference range; cited from earlier work"}}, "note": "“Also recorded” adds a separate entry of the source.", "data": [{"smiles": "Cc1cc(C2CCCCC2)n(O)c(=O)c1", "note": "[ciclopirox]", "values": [{"measurement": "cells with fragmented DNA (apoptotic), infected treated cultures", "setting": "[1]; 30 μM, 144 hours after inoculation", "value": "71.8±8.8", "unit": "%"}, {"measurement": "number of infective virions produced", "setting": "[2]", "value": "undetectable levels"}, {"measurement": "cells with fragmented DNA (apoptotic), uninfected treated cultures", "setting": "uninfected PBMCs", "value": "24.1±3.2", "unit": "%"}]}, {"smiles": "Cc1c(O)c(=O)ccn1C", "note": "[deferiprone, 3-hydroxy-1,2-dimethylpyridin-4(1H)-one]", "values": [{"measurement": "Δ log10 HIV-1 RNA, acute decline coinciding with peak concentrations ≧150 μM", "setting": "HIV-1 [3]; 50 mg/kg po TID group", "value": "−0.44±0.1", "unit": "log10"}, {"measurement": "Δ log10 HIV-1 RNA D7 vs. D1, subjects with acute viral load decline", "setting": "HIV-1 [3]; Group A, the 6 of 7 with decline", "value": "−0.42±0.05", "unit": "log10"}, {"measurement": "subjects with acute viral load decline", "setting": "HIV-1 [3]; Group A, ≧150 μM in serum", "value": "6 of 7"}, {"measurement": "Δ log10 HIV-1 RNA D7 vs. D1", "setting": "HIV-1 [3]; Group A, ≧150 μM in serum, 33 or 50 mg/kg po TID, N=7", "value": "−0.40±0.1", "unit": "log10"}, {"measurement": "Δ log10 HIV-1 RNA D7 vs. D1", "setting": "HIV-1 [3]; Group B, did not achieve ≧150 μM in serum, deferiprone N=4", "value": "+0.17±0.07 log10"}, {"measurement": "difference responders vs non-responders, Δ log10 D7 vs. D1", "setting": "HIV-1 [3]; end of first stage, 6 responders, 5 non-responders", "value": 0.64, "unit": "log10"}, {"measurement": "difference responders vs non-responders, Δ log D53 vs. D1", "setting": "HIV-1 [3]; end of second stage, 5 responders, 5 non-responders, off drug", "value": 0.54, "unit": "log"}, {"measurement": "duration of persistent off-drug suppression as multiple of drug half-life", "setting": "HIV-1 [3]; off-drug, human", "value": "≥ 200", "unit": "times the half-life"}, {"measurement": "antiretrovirally effective in vivo threshold (serum concentration)", "setting": "HIV-1 [3]; serum, 11 treated subjects, P=0.0152 Fisher's Exact test", "value": "≥ 150", "unit": "µM"}, {"measurement": "acute responders that did not reacquire viral load baseline", "setting": "HIV-1 [3]; seven weeks post-treatment after one-week pulse", "value": 80, "unit": "%"}, {"measurement": "apoptotic volume decrease", "setting": "PBMCs", "value": "not detectable"}, {"measurement": "viability (trypan blue)", "setting": "PBMCs", "value": "≥ 95", "unit": "%"}, {"measurement": "induced apoptosis in infected versus uninfected PBMCs", "setting": "[1]; 200 μM, non-replenished short-term cultures", "value": "significantly (P≦0.009) exceeded that in uninfected PBMCs"}, {"measurement": "HIV-1 DNA in post-treatment cultures", "setting": "HIV-1 DNA", "value": "either negative or at the lower limit of detectability"}, {"measurement": "concentration required for effective suppression of HIV-1 generation and selective induction of apoptosis", "setting": "infected T-cell lines", "value": "at least 150 μM"}, {"measurement": "rate of viral RNA rebound after cessation of drug", "setting": "[2]; 100 μM, 35 days of treatment", "value": "+0.24 log10/ml/day"}, {"measurement": "decrease of viral copy number versus set-point of controls", "setting": "[2]; 100 μM, infected replenished cultures, weeks of treatment", "value": "decreased by just one log"}, {"measurement": "p24 relative to controls", "setting": "[2]; 100 μM", "value": "≤ 10 % of controls"}, {"measurement": "viral RNA nadir", "setting": "[2]; 200 μM", "value": "10^3 copies/ml"}, {"measurement": "reduction of viral RNA copies versus infected untreated controls", "setting": "[2]; 200 μM, 16-day treated cultures", "value": "reduced by three orders of magnitude"}, {"measurement": "re-emergence of productive infection off-treatment", "setting": "[2]; 200 μM, after 90 days off-treatment", "value": "no re-emergence of productive infection"}, {"measurement": "decline of viral copy number", "setting": "[2]; 200 μM, continuous treatment", "value": "falling by three logs"}, {"measurement": "time to reach nadir of <10^3 copies/ml", "setting": "[2]; 200 μM, depending on isolate - primary cell combination", "value": "2-4 weeks"}, {"measurement": "HIV-1 RNA rebound after drug discontinuation", "setting": "[2]; 200 μM, off drug, replenished cultures", "value": "viral RNA rebound is absent off drug; also recorded: did not rebound"}, {"measurement": "viral RNA after continued observed decline", "setting": "[2]; 200 μM, post-treatment", "value": "< 10^2 copies/ml"}, {"measurement": "p24 relative to controls", "setting": "[2]; 200 μM", "value": "≤ 10 % of controls"}, {"measurement": "on-drug rate of viral RNA decline", "setting": "[2]; 200 μM, appears to continue up to five days post cessation", "value": "−0.04", "unit": "log10/ml/day"}, {"measurement": "time for post-treatment rebound to reacquire set-point", "setting": "[2]; after cessation of 100 μM", "value": "≤ 72", "unit": "h"}, {"measurement": "p24 expression and viral copy number", "setting": "[2]; below 100 μM", "value": "marginally affected"}, {"measurement": "viral breakthrough", "setting": "[2]; month-long monotherapy", "value": "did not elicit viral breakthrough"}, {"measurement": "number of infective virions produced", "setting": "[2]", "value": "undetectable levels"}]}, {"smiles": "Cc1cn([C@H]2C[C@H](N=[N+]=[N-])[C@@H](CO)O2)c(=O)[nH]c1=O", "note": "[zidovudine]", "values": [{"measurement": "viral load decline on monotherapy", "setting": "HIV-1 [4]", "value": "−0.3", "unit": "log10"}]}]}
